Among the data in patent publication US8796268B2, “Heteroaryls and uses thereof” (Millennium Pharmaceuticals, Inc., priority 2010, dated 2014) are inhibition values, retold here.

Format in all cases: biochemical
The target in test [1] is T1, Human PI3K alpha (Homo sapiens, UniProt P42336).
T1 construct: His (N); host or cells: SF9 insect cells (baculovirus)
The experiment in a line: Human PI3K alpha enzyme assay (HTRF).

Test [2] deals with T2, Human PI3K delta (Homo sapiens, UniProt O00329).
T2 construct: His (N); host or cells: SF9 insect cells (baculovirus)
T2 sequence (O00329 whole entry): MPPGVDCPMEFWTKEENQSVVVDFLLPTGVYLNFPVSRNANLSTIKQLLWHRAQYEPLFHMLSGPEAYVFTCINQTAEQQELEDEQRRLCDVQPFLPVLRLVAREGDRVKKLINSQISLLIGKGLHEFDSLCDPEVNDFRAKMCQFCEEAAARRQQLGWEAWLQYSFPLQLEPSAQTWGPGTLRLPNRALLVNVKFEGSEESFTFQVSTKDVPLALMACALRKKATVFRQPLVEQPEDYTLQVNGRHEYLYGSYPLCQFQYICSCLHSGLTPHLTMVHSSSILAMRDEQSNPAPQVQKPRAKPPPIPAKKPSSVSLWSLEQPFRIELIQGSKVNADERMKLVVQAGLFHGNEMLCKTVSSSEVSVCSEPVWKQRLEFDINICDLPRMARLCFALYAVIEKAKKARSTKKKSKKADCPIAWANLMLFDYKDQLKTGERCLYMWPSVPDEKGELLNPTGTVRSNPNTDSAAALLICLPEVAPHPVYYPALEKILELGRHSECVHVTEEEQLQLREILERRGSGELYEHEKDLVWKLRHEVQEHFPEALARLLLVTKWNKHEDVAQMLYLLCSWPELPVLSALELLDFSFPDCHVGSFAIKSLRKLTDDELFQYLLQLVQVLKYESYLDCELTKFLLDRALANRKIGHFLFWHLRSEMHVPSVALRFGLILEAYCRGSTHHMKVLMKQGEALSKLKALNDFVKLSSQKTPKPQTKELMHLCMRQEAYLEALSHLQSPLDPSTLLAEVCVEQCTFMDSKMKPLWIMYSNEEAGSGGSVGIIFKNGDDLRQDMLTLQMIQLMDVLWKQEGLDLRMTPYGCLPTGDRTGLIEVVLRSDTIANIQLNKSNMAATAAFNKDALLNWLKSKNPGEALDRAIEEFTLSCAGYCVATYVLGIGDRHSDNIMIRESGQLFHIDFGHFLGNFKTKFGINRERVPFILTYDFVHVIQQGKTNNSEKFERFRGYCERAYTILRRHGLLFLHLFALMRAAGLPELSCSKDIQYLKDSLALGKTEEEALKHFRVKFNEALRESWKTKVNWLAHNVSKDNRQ
T2 sequence (P27986 whole entry partner): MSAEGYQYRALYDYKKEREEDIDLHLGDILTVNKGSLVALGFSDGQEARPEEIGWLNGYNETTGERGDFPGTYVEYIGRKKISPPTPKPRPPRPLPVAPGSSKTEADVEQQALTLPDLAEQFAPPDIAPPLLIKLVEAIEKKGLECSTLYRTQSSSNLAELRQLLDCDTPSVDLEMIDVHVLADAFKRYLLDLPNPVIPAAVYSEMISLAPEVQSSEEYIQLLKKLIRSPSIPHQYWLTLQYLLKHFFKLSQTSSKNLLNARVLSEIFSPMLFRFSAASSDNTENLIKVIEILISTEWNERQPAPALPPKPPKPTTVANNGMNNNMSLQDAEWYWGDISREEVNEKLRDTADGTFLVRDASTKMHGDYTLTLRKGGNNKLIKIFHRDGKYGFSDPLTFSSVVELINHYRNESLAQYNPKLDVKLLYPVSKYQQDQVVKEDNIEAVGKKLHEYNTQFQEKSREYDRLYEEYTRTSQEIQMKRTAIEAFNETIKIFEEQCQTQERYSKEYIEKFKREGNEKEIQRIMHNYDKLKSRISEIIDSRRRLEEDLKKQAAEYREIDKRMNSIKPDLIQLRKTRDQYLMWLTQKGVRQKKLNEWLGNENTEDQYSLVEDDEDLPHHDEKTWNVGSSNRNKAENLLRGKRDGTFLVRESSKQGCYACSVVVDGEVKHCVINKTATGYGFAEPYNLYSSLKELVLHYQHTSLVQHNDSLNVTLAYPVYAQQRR
Nature of the test: Human PI3K delta enzyme assay (HTRF). In short, it runs like this: (§1)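 Compounds were mixed with 25 uM ATP, then with 3.5 uM di-C8 PI(4,5)P2 and His-tagged PI3K isoform (β 5.25 nM, δ 0.75 nM, γ 5 nM) at pH 7.00. After 30 min at room temperature, EDTA stopped the reaction and PIP3 was measured by HTRF over 1 h.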
On the technique in general: In TR-FRET formats the signal depends on donor and acceptor labels being close together.

Test [3] concerns the target T3, Human PI3K beta (Homo sapiens, UniProt P42338).
T3 construct: His (N); host or cells: SF9 insect cells (baculovirus)
The experiment in a line: Human PI3K beta enzyme assay (HTRF). In short, it runs like this:
as §1

Test [4] addresses T4, Human VPS34 (Homo sapiens, UniProt Q8NEB9).
T4 construct: GST (with thrombin site, pDEST20-Thrombin) (N); host or cells: SF9 insect cells (baculovirus)
The experiment in a line: Human VPS34 enzyme assay (Adapta Universal Kinase Assay). The following applies: at a 1.0 μM concentration; read-out: VPS34 Percent Inhibition. An excerpt:
The catalytic subunits of PI3Ks are cloned into either pDEST8(p110 alpha) or pDEST10(p110beta, p110delta, and p110gamma) as N-terminal His tagged fusion proteins using the Gateway system (Invitrogen, catalog#11804-010 for pDEST8 and 11806-015 for pDEST10). The sequences are verified before recombinant protein expression using the Baculovirus Expression System with Gateway® Technology. The accession numbers for the subunits are as follows: • p110 alpha (GB:U79143) • p110beta (GB: S67334) • p110delta (GB: U86453) • p110gamma (GB: X83368) • The regulatory subunits of PI3Ks are cloned into pDEST8 as un-tagged protein using the Gateway system (Catalog#11804-010). The sequences are verified before recombinant protein expression using the Baculovirus Expression System with Gateway® Technology. The accession numbers for the subunits are as following: • p85 alpha (GB: BC030815) • p101(GB: AB028925) • VPS34 (accession number GB:BC033004) is cloned into pDEST20—Thombin as N-terminal GST tagged fusion proteins using the Gateway system (Invitrogen, catalog#11804-013). The sequences are verified before recombinant protein expression using the Baculovirus Expression System with Gateway® Technology.
For expression VPS34 was infected at 1MOI in SF9 cells and harvested 72 hours post infection.
For purification, VPS34 is purified by Glutathione Sepharose 4 Fast Flow (GE Healthcare #17-5132-03) followed by HiTrap Q (GE Healthcare #17-1153-01).
3) VPS34 is assayed using Adapta™ Universal Kinase Assay Kit (Invitrogen).
4) Human VPS34 enzyme assay method
100 nL compounds in DMSO are added to wells of a 384 well microtitre plate (Greiner 780076). At room temperature: 5 ul VPS34 reaction buffer (Invitrogen Assay Buffer Q (diluted 1 in 5 with nanopure water) plus 2 mM DTT and 2 mM MnCl2) containing ATP (20 uM, Promega) and 200 uM PI—PS substrate (Invitrogen PV5122) is added followed immediately by 5 ul VPS34 reaction buffer (as above) containing VPS34 (5 nM, Millennium Protein Sciences Group) and the mixture is incubated with shaking at room temperature for 1 hour. Then 5 ul VPS34 stop-detect mix (as per Invitrogen Adapta Assay kit (PV5009) instructions (contains kinase quench buffer, TR-FRET buffer, Adapta Eu anti-ADP antibody and Alexa Fluor 647 ADP tracer)) is added to quench the reaction. The plates are then incubated for 30 minutes at room temperature with shaking and then read on a BMG PheraStar Plus reader.
For the assay methods described above, test compound percent inhibition, at various concentrations, is calculated relative to control (DMSO and EDTA) treated samples. Compound concentration versus percent inhibition curves are fitted to generate IC50 values. One skilled in the art will appreciate that the values generated either as percentage inhibition at a single concentration or IC50 values are subject to experimental variation.

For test [5], the target named is T5, Human PI3K gamma (Homo sapiens, UniProt P48736).
T5 construct: His (N); host or cells: SF9 insect cells (baculovirus)
T5 sequence (P48736 whole entry): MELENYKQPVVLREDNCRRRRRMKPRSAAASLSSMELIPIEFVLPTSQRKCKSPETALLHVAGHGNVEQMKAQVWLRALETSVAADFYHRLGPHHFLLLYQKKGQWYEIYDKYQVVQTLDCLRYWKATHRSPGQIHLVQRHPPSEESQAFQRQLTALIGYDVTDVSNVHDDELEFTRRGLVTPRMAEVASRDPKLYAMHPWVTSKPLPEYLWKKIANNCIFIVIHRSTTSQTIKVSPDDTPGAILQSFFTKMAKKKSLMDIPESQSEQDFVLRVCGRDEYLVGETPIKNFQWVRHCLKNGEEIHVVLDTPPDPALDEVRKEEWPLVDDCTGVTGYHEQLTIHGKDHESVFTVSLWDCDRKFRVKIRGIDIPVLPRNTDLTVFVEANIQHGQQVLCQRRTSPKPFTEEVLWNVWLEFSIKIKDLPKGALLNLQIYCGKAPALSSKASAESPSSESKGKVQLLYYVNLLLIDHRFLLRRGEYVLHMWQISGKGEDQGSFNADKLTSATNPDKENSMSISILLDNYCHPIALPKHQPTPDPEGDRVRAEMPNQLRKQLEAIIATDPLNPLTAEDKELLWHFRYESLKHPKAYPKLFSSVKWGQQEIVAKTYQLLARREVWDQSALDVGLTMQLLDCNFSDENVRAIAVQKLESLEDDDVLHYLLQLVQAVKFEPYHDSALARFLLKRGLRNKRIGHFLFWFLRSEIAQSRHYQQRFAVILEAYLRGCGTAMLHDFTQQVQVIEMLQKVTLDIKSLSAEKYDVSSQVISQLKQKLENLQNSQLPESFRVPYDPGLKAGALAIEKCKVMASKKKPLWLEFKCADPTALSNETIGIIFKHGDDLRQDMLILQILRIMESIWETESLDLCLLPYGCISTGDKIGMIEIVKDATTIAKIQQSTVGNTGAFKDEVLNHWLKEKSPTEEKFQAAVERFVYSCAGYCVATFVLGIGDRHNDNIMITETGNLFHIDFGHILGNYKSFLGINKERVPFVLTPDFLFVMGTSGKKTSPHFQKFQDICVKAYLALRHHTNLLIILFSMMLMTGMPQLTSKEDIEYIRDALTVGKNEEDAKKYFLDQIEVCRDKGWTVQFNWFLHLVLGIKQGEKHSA
Nature of the test: Human PI3K gamma enzyme assay (HTRF). In short, it runs like this: as §1

The mark [6] stands for this setting: at a 1.1 μM concentration, read-out: PI3Kα Percent Inhibition.
[7] abbreviates: at a 1.0 μM concentration, read-out: PI3Kδ Percent Inhibition.
Where [8] appears, read: at a 1.1 μM concentration, read-out: PI3β Percent Inhibition.
The mark [9] stands for this setting: at a 1.0 μM concentration, read-out: PI3Kγ Percent Inhibition.

Each structure is given as a SMILES string. Read-outs that look alike come from different tables or passages of the source.

T4 sequence (Q8NEB9 whole entry): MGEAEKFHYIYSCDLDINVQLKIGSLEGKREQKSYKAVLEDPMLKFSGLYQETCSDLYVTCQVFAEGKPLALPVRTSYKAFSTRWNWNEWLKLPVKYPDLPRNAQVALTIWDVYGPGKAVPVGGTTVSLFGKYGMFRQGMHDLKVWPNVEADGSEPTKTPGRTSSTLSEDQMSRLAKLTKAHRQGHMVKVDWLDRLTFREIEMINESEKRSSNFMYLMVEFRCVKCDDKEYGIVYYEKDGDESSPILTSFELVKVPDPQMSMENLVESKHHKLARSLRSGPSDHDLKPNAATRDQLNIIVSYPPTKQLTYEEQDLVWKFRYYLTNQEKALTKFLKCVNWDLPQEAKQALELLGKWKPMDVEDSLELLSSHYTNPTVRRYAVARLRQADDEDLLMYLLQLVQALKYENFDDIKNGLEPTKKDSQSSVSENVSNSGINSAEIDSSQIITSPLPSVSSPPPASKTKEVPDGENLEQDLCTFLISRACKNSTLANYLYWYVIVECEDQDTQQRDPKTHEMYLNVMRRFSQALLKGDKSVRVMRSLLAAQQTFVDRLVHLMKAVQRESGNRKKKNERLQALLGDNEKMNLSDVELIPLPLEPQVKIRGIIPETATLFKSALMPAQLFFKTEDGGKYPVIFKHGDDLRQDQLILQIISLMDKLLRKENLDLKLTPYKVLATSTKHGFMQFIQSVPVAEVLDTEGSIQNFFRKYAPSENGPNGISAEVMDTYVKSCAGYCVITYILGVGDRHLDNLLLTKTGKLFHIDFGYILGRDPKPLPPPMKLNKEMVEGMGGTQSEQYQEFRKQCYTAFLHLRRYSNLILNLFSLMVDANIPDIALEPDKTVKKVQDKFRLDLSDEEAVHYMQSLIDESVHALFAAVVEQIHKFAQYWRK
T1 sequence (P42336 whole entry): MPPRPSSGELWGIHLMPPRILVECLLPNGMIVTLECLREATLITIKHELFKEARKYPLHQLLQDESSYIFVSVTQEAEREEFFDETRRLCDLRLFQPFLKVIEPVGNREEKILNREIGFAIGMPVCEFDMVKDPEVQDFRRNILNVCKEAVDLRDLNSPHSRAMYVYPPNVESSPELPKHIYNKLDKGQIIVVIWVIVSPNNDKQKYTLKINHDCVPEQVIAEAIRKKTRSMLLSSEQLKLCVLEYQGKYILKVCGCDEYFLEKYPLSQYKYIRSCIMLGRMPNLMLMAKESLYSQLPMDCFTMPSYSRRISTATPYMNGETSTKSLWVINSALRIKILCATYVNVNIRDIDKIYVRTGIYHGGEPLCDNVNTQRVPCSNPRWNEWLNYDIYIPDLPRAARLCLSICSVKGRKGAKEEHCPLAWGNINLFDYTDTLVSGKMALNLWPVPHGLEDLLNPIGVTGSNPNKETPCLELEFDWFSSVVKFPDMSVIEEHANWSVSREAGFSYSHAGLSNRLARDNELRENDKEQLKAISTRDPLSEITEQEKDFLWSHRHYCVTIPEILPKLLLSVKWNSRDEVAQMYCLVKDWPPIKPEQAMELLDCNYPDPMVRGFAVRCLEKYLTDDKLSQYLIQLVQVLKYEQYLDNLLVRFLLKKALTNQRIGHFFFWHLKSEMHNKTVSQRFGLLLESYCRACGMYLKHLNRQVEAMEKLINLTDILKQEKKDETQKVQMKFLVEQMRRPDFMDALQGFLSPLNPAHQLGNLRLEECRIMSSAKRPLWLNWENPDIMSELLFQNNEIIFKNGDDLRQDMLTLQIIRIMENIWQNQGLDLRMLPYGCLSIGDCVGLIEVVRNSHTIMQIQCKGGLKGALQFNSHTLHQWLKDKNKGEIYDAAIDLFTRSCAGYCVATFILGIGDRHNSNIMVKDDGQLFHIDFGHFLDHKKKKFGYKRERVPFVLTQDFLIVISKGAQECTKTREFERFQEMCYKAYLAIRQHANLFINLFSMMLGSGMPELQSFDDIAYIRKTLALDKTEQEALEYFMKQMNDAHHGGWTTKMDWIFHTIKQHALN
T1 sequence (P27986 whole entry partner): as the sequence (P27986 whole entry partner) above

On to `O=C(O)c1sc(N2CCOCC2)nc1Cc1ccc(C(F)(F)F)cc1` [Compound 111], for which the inhibition at 1.1 µM is 7% in test [1] (setting [6]) and 77% in test [3] (setting [8]). The values for the inhibition at 1 µM in test [2] (setting [7]), in test [4] and in test [5] (setting [9]) were 60.5%, 46.8% and 6.9%, respectively.
Regarding `O=C(O)c1sc(N2CCOCC2)nc1Cc1ccc(Cl)c(F)c1` [Compound 118, 4-(4-chloro-3-fluorobenzyl)-2-morpholin-4-yl-1,3-thiazole-5-carboxylic acid], the inhibition at 1.1 µM in test [1] (setting [6]) is 28%; in test [3] (setting [8]) it was 104%. The inhibition at 1 µM in test [2] (setting [7]) was 89.3%; in test [4], 68.2%; in test [5] (setting [9]) it was 27.5%.
For `COc1ccc(Cc2nc(N3CCOCC3)sc2C(=O)O)cc1` [Compound 103], the inhibition at 1.1 µM in test [1] (setting [6]) worked out at 2%; in test [3] (setting [8]), 71%. Also, the inhibition at 1 µM in test [2] (setting [7]) worked out at 38.6%; in test [4], 7.2%; in test [5] (setting [9]), 6.4%.
Regarding `COc1ccc(Cc2nc(N3CCOCC3)sc2C(=O)O)c(Cl)c1` [Compound 120], the inhibition at 1.1 µM was 18% in test [1] (setting [6]) and 97% in test [3] (setting [8]). Also, the values for the inhibition at 1 µM in test [2] (setting [7]), in test [4] and in test [5] (setting [9]) were 77%, 38.3% and 11%, respectively.
Take `N#Cc1c(C2=CCOCC2)sc(C(=O)O)c1Cc1ccc(Cl)cc1` [Compound 95, 3-(4-chlorobenzyl)-4-cyano-5-(3,6-dihydro-2H-pyran-4-yl)thiophene-2-carboxylic acid]: the inhibition at 1.1 µM came out at 68% in test [1] (setting [6]) and 101% in test [3] (setting [8]). Further, the inhibition at 1 µM was 86.1% in test [2] (setting [7]), 167% in test [4] and 23.9% in test [5] (setting [9]).
Regarding `N#Cc1c(N2CCOCC2)sc(C(=O)O)c1Cc1ccc(Cl)cc1` [Compound 116], the inhibition at 1.1 µM in test [1] (setting [6]) turned out to be 46%; in test [3] (setting [8]) it was 98%. For the same compound, the inhibition at 1 µM was 83% in test [2] (setting [7]), 54.2% in test [4] and 36.7% in test [5] (setting [9]).
On to `N#Cc1c(N2CCOCC2)sc(C(=O)O)c1Cc1ccc(Cl)cc1Cl` [Compound 96], for which the inhibition at 1.1 µM in test [1] (setting [6]) was found to be 58%; in test [3] (setting [8]), 109%. Also, the inhibition at 1 µM in test [2] (setting [7]) was found to be 96%; in test [4], 47.8%; in test [5] (setting [9]), 36.2%.
For the compound `N#Cc1c(N2CCOCC2)sc(C(=O)O)c1Cc1ccc(Cl)cc1F` [Compound 123], the results for the inhibition at 1.1 µM in test [1] (setting [6]) and in test [3] (setting [8]) were 64% and 105%, respectively. For the same compound, the inhibition at 1 µM came out at 96.8% in test [2] (setting [7]), 45.1% in test [4] and 36.6% in test [5] (setting [9]).
With `N#Cc1ccc(Cc2c(C(=O)O)sc(N3CCOCC3)c2C#N)cc1` [Compound 115], the values for the inhibition at 1.1 µM in test [1] (setting [6]) and in test [3] (setting [8]) were 45% and 97%, respectively. The figures for the inhibition at 1 µM in test [2] (setting [7]), in test [4] and in test [5] (setting [9]) were 63%, 39.7% and 12%, respectively.
Consider `O=C(O)c1sc(N2CCOCC2)nc1Cc1ccc2ccccc2c1` [Compound 98], for which the inhibition at 1.1 µM in test [1] (setting [6]) amounted to 58%; in test [3] (setting [8]), 111%. For the same compound, the inhibition at 1 µM in test [2] (setting [7]) came to 108%; in test [4] it was 68.9%; in test [5] (setting [9]), 67.6%.
With `CC(c1ccc(Cl)cc1)c1nc(N2CCOCC2)sc1C(=O)O` (centres unmarked) [Compound 121, 4-[1-(4-chlorophenyl)ethyl]-2-(morpholin-4-yl)-1,3-thiazole-5-carboxylic acid], the inhibition at 1.1 µM turned out to be 11% in test [1] (setting [6]) and 59% in test [3] (setting [8]). Further, the inhibition at 1 µM was found to be 77.3% in test [2] (setting [7]), 64.8% in test [4] and 7.3% in test [5] (setting [9]).
In the same order, the values of `O=C(O)c1sc(N2CCOCC2)nc1Cc1ccc(OC(F)(F)F)cc1` [Compound 109] are 6%, 76%, 35.4%, 24% and 3.9%.
With `N#Cc1c(N2CCOCC2)sc(C(=O)O)c1Cc1ccc(Cl)c(Cl)c1` [Compound 124], the values for the inhibition at 1.1 µM in test [1] (setting [6]) and in test [3] (setting [8]) were 79% and 109%, respectively. Further, the inhibition at 1 µM in test [2] (setting [7]) came out at 112%; in test [4], 78.8%; in test [5] (setting [9]), 74.2%.
On to `O=C(O)c1sc(C2=CCOCC2)nc1Cc1ccc(Cl)cc1` [Compound 100, 4-(4-chlorobenzyl)-2-(3,6-dihydro-2H-pyran-4-yl)-1,3-thiazole-5-carboxylic acid], for which the inhibition at 1.1 µM in test [1] (setting [6]) is 20%; in test [3] (setting [8]), 98%. Moreover, the inhibition at 1 µM turned out to be 65.5% in test [2] (setting [7]), 36.6% in test [4] and 13.2% in test [5] (setting [9]).
With `N#Cc1c(N2CCOCC2)sc(C(=O)O)c1Cc1ccc(Br)cc1` [Compound 106], the results for the inhibition at 1.1 µM in test [1] (setting [6]) and in test [3] (setting [8]) were 58% and 103%, respectively. Also, the inhibition at 1 µM turned out to be 88.8% in test [2] (setting [7]), 34.4% in test [4] and 51.8% in test [5] (setting [9]).
In the same order, the values of `O=C(O)c1sc(N2CCOCC2)nc1Cc1ccc(F)cc1Cl` [Compound 99] are 12%, 72%, 55.4%, 46.7% and 6.4%.
Take `COc1ccc(Cc2c(C(=O)O)sc(N3CCOCC3)c2C#N)c(Cl)c1` [Compound 117]: the results for the inhibition at 1.1 µM in test [1] (setting [6]) and in test [3] (setting [8]) were 48% and 94%, respectively. Moreover, the inhibition at 1 µM turned out to be 78.5% in test [2] (setting [7]), 28.6% in test [4] and 14.7% in test [5] (setting [9]).
With `N#Cc1c(N2CCOCC2)sc(C(=O)O)c1Cc1c(F)cc(Cl)cc1F` [Compound 126], the inhibition at 1.1 µM in test [1] (setting [6]) was 42%; in test [3] (setting [8]), 103%. Moreover, the inhibition at 1 µM in test [2] (setting [7]) came to 100%; in test [4], 44%; in test [5] (setting [9]), 37.6%.
In the same order, the values of `COc1ccc(Cc2c(C(=O)O)sc(N3CCOCC3)c2C#N)cc1` [Compound 105] are 21%, 98%, 51.2%, 22.6% and 9.8%.
`N#Cc1ccc(Cc2nc(N3CCOCC3)sc2C(=O)O)cc1` [Compound 93]: the inhibition at 1.1 µM in test [1] (setting [6]) came to 9%; in test [3] (setting [8]), 80%. Also, the inhibition at 1 µM in test [2] (setting [7]) was found to be 46%; in test [4] it was 19.2%; in test [5] (setting [9]), 9.5%.
As for `COc1ccc(C(O)c2cc(-c3ccncc3)sc2-c2nnc[nH]2)cc1C` (centres unmarked) [Compound 202], the inhibition at 1.1 µM in test [1] (concentration not given, b1387 states 1.1 μM for PI3K α and β, read-out: p110 alpha Percent Inhibition) was 12%; in test [3] (concentration not given, b1387 states 1.1 μM for PI3K α and β, read-out: p110 beta Percent Inhibition), 80%. Besides, the inhibition at 1 µM amounted to 54% in test [2] (concentration not given, b1389 states 1.0 μM for PI3K δ and γ, read-out: p110 delta Percent Inhibition); 8% in test [5] (concentration not given, b1389 states 1.0 μM for PI3K δ and γ, read-out: p110 gamma Percent Inhibition).
